Assay [1] concerns endogenous H2AX. Kind of assay: Anti-EGFP co-immunoprecipitation with endogenous H2AX. The note with it: MDA-MB-468 stable subline, anti-EGFP IP, anti-H2AX WB; Figure 5C. The format is cell-based, human. Here is the method:
(§1) Logarithmically growing cells were either untreated or treated with different agents for various time periods. The cells were lysed to prepare protein extracts. IP was carried out by incubating approximately 1 mg of the protein lysate with appropriate antibodies. The immunoprecipitates were then analyzed by SDS-PAGE, followed by WB with respective, interacting protein. For Gst-pulldown, Gst-H2AX or various His-TAT-HA-tagged CARP-1 peptides were generated in Escherichia coli (E. coli) BL21 cells essentially as described by us previously. Briefly, the competent E. coli BL-21 (DE3) pLysS cells were transformed separately with various recombinant pGEX-4T-1 or pTAT-HA constructs. The transformed cells were then subjected to selection by combined presence of ampicillin and chloramphenicol; various isolates for each transformation were obtained and bacterial lysates were characterized for expression of fusion peptides. Cells from each isolate were grown in 4 mL of LB medium containing ampicillin only until the optical density (OD)600 reached 0.4–0.8. Expression of fusion peptides was induced over 2–4 h incubation periods after Isopropyl β-D-1-thiogalactopyranoside (IPTG) addition. […]
(§2) Figure 5 Fine Mapping of H2AX/CARP-1 interacting epitopes. […] Following stringent washing, the bound proteins were analyzed with WB using anti-HA (upper) or anti-Gst (middle) antibodies. […]

Assay [2] concerns endogenous CARP-1. Kind of assay: Anti-EGFP co-immunoprecipitation with endogenous CARP-1. The format is cell-based, human. The note with it: MDA-MB-468 stable subline, anti-EGFP IP, anti-CARP-1 (α2) WB; Figure 5D. As to the method:
as §1, §2

No end group written: not given here.

As for “EGFP-CARP-1 (636–650): EGFP-tagged fusion protein stably expressed in MDA-MB-468 and HeLa sublines (PKTMKVNDLRKELES; also: EGFP fusion kept, end not given here)”, the “in-cell interaction with endogenous H2AX” value in assay [1] is “robust, in vivo (in-cell) interaction”. “EGFP-H2AX (1–35): EGFP-tagged fusion protein stably expressed in MDA-MB-468 and HeLa sublines (MSGRGKTGGKARAKAKSRSSRAGLQFPVGRVHRLL; also: EGFP fusion, end not given here; UniProt P16104 1-35, looked up, fragment)”: the “in-cell interaction with endogenous CARP-1” value in assay [2] is listed as “robust, in vivo interaction”.

(Values after article PMC6406907, “A H2AX–CARP-1 Interaction Regulates Apoptosis Signaling Following DNA Damage” (Cancers, 2019).)
